Assay [1] relates to Streptococcus uberis. As to the kind of experiment: Antimicrobial activity against Streptococcus uberis ATCC 9529 harboring PAP1A R273P, PBP2B N366I/T402I and PBP2X E381K/Q554E mutation after 11 passages assessed as inhibition of visible growth by broth macrodilution method. The class given is functional.
Assay [2] relates to Streptococcus uberis. As to the kind of experiment: Antimicrobial activity against Streptococcus uberis ATCC 19436 harboring PAP1A A227T/G386R, PBP2B N366I/T402I and PBP2X E381K/D524A/Q554E mutation after 30 passages assessed as inhibition of visible growth by broth macrodilution method. The assay is classed as functional.
Assay [3] relates to Streptococcus uberis. As to the kind of experiment: Antimicrobial activity against Streptococcus uberis isolate BL246 harboring PBP2B N366I/T402I and PBP2X E381K/Q554E mutation assessed as inhibition of visible growth after 24 hrs by broth macrodilution method. The class given is functional. As to conditions: isolate BL246, 24 h.
Assay [4] has as its system Streptococcus uberis. Kind of assay: Antimicrobial activity against Streptococcus uberis ATCC 8749 harboring PAP1A R273H, PBP2B N366I/T402I and PBP2X E381K/Q554E mutation after 16 passages assessed as inhibition of visible growth by broth macrodilution method. The assay is classed as functional.
The test system of assay [5] is Streptococcus uberis. As to the kind of experiment: Antimicrobial activity against Streptococcus uberis isolate ALP8092 harboring PAP1A G386R and PBP2X E381K/Q554E mutation assessed as inhibition of visible growth after 24 hrs by broth macrodilution method. As to conditions: isolate ALP8092, 24 h. The assay is classed as functional.
For assay [6], the system named is Streptococcus uberis. As to the kind of experiment: Antimicrobial activity against Streptococcus uberis ATCC 8749 harboring PBP2B N366I/T402I/V570A/P575S and PBP2X A492E mutation assessed as inhibition of visible growth by broth macrodilution method. The assay is classed as functional.
For assay [7], the system named is Streptococcus uberis. Kind of assay: Antimicrobial activity against Streptococcus uberis isolate 20568 harboring PAP1A G386R, PBP2B N366I/T402I/V570A/P575S and PBP2X E381K/Q554E mutation assessed as inhibition of visible growth after 24 hrs by broth macrodilution method. As to conditions: isolate 20568, 24 h. The class given is functional.
Assay [8] has as its system Streptococcus uberis. As to the kind of experiment: Antimicrobial activity against Streptococcus uberis ATCC 19436 harboring PAP1A A227T, PBP2B N366I/T402I and PBP2X E381K/D524A/Q554E mutation after 18 passages assessed as inhibition of visible growth by broth macrodilution method. The assay is classed as functional.
Assay [9] has as its system Streptococcus uberis. Kind of assay: Antimicrobial activity against Streptococcus uberis isolate 20592 harboring and PBP2X E381K/Q554E mutation assessed as inhibition of visible growth after 24 hrs by broth macrodilution method. The class given is functional. As to conditions: isolate 20592, 24 h.
Assay [10] concerns Streptococcus uberis. Kind of assay: Antimicrobial activity against Streptococcus uberis isolate 20618 harboring PAP1A G386R and PBP2X E381K/Q554E mutation assessed as inhibition of visible growth after 24 hrs by broth macrodilution method. The class given is functional. To be noted: isolate 20618, 24 h.
Assay [11] deals with Streptococcus uberis. As to the kind of experiment: Antimicrobial activity against Streptococcus uberis ATCC 8749 harboring PAP1A A227T/G386R, PBP2B N366I/T402I and PBP2X E381K/D524A/Q554E mutation after 28 passages assessed as inhibition of visible growth broth macrodilution method. The class given is functional.
Assay [12] relates to Streptococcus uberis. As to the kind of experiment: Antimicrobial activity against Streptococcus uberis ATCC 19436 harboring PAP1A A227T, PBP2B N366I/T402I and PBP2X E381K/Q554E mutation after 15 passages assessed as inhibition of visible growth by broth macrodilution method. The assay is classed as functional.
In assay [13] the test system is Streptococcus uberis. As to the kind of experiment: Antimicrobial activity against Streptococcus uberis ATCC 9529 harboring PAP1A A227T/G386R, PBP2B N366I/T402I and PBP2X E381K/D524A/Q554E mutation after 39 passages assessed as inhibition of visible growth by broth macrodilution method. The assay is classed as functional.
Assay [14] relates to Streptococcus uberis. As to the kind of experiment: Antimicrobial activity against Streptococcus uberis isolate ALP 8144 harboring PBP2X E381K/Q554E mutation assessed as inhibition of visible growth after 24 hrs by broth macrodilution method. The assay is classed as functional. As to conditions: isolate ALP 8144, 24 h.
For assay [15], the system named is Streptococcus uberis. Kind of assay: Antimicrobial activity against Streptococcus uberis ATCC 8749 harboring PAP1A A227T/G386R, PBP2B N366I/T402I and PBP2X E381K/D524A/Q554E mutation after 37 passages assessed as inhibition of visible growth broth macrodilution method. The class given is functional.
Assay [16] relates to Streptococcus uberis. As to the kind of experiment: Antimicrobial activity against Streptococcus uberis ATCC 9529 harboring PBP2B N366I/T402I and PBP2X E381K/Q554E mutation assessed as inhibition of visible growth by broth macrodilution method. The class given is functional.
The test system of assay [17] is Streptococcus uberis. Kind of assay: Antimicrobial activity against Streptococcus uberis ATCC 9529 harboring PAP1A R273P, PBP2B N366I/T402I and PBP2X E381K/Q554E mutation after 28 passages assessed as inhibition of visible growth by broth macrodilution method. The class given is functional.
Assay [18] deals with Streptococcus uberis. As to the kind of experiment: Antimicrobial activity against Streptococcus uberis ATCC 19436 assessed as inhibition of visible growth after 24 hrs by broth macrodilution method. The class given is functional. To be noted: ATCC 19436, 24 h.
The test system of assay [19] is Streptococcus uberis. As to the kind of experiment: Antimicrobial activity against Streptococcus uberis isolate 1.11 harboring PAP1A G386R, PBP2B T593A and PBP2X E381K/Q554E mutation assessed as inhibition of visible growth after 24 hrs by broth macrodilution method. To be noted: isolate 1.11, 24 h.

The results in this text go back to ChEMBL document CHEMBL1240403, “Penicillin-binding protein gene alterations in Streptococcus uberis isolates presenting decreased susceptibility to penicillin” (2010).

Converted amounts (≈) assume the structure as drawn.

The term MIC denotes the smallest concentration in the dilution series that meets the test's criterion for growth inhibition.

Consider `CC1(C)S[C@@H]2[C@H](NC(=O)Cc3ccccc3)C(=O)N2[C@H]1C(=O)O` [PENICILLIN G], for which the minimal inhibitory concentration (MIC) in assay [1] came out at 0.5 µg/mL (≈ 1.5 µM); in assay [2], 2 µg/mL (≈ 5.98 µM); in assay [3], 0.25 µg/mL (≈ 0.748 µM); in [4], 0.5 µg/mL (≈ 1.5 µM); in [5] it was 0.25 µg/mL (≈ 0.748 µM); in assay [6] it was 0.016 µg/mL (≈ 0.0478 µM). Further, the minimal inhibitory concentration (MIC) came to 0.5 µg/mL (≈ 1.5 µM) in assay [7]; 1 µg/mL (≈ 2.99 µM) in assay [8]; 0.5 µg/mL (≈ 1.5 µM) in [9]; 0.25 µg/mL (≈ 0.748 µM) in [10]; 1 µg/mL (≈ 2.99 µM) in assay [11]; 0.5 µg/mL (≈ 1.5 µM) in [12]. The MIC in [13] stood at 2 µg/mL (≈ 5.98 µM); in assay [14], 0.25 µg/mL (≈ 0.748 µM); in assay [15], 2 µg/mL (≈ 5.98 µM); in [16], 0.128 µg/mL (≈ 0.383 µM); in assay [17] it was 1 µg/mL (≈ 2.99 µM); in assay [18] it was 0.032 µg/mL (≈ 0.0957 µM). For the same compound, in assay [19], the minimum inhibitory concentration (MIC) amounted to 0.25 µg/mL (≈ 0.748 µM).
